Measured values from article PMC9628810 (Science (New York, N.Y.), 2022).

Experiments:
[1] = target: T1, NLP7 (GST-NLP7-8xHIS) (Arabidopsis thaliana, UniProt Q84TH9); experiment: microscale thermophoresis; type: binding
T1 sequence (Q84TH9 1-959): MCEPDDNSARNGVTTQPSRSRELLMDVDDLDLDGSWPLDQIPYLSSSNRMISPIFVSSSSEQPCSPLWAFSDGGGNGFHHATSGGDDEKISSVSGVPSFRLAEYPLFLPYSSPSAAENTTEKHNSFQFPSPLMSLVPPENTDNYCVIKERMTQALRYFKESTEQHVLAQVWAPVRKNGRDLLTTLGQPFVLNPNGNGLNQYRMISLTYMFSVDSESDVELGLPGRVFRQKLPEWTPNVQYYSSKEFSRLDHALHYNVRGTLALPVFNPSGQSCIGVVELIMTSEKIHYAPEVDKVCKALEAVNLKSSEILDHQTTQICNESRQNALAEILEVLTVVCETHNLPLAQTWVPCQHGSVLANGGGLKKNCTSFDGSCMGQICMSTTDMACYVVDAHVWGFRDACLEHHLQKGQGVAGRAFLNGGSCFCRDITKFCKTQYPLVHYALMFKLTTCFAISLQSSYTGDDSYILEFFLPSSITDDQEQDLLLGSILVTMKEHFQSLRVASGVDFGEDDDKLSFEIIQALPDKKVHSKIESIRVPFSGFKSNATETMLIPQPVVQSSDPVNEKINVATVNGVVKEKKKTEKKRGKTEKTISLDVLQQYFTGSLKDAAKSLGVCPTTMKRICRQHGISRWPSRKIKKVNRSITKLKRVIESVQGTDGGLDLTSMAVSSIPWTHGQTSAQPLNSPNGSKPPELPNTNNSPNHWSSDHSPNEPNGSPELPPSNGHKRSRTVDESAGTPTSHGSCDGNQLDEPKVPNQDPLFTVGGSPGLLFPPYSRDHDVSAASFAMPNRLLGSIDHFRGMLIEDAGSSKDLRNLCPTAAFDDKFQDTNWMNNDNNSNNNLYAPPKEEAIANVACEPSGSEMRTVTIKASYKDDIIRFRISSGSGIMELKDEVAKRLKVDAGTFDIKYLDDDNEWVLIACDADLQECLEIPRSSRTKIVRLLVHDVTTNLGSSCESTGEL

[2] = target: T2, N-NLP7(1–581) (GST-N-NLP7-8xHIS) (Arabidopsis thaliana, UniProt Q84TH9); experiment: microscale thermophoresis; type: binding
T2 sequence (Q84TH9 1-581): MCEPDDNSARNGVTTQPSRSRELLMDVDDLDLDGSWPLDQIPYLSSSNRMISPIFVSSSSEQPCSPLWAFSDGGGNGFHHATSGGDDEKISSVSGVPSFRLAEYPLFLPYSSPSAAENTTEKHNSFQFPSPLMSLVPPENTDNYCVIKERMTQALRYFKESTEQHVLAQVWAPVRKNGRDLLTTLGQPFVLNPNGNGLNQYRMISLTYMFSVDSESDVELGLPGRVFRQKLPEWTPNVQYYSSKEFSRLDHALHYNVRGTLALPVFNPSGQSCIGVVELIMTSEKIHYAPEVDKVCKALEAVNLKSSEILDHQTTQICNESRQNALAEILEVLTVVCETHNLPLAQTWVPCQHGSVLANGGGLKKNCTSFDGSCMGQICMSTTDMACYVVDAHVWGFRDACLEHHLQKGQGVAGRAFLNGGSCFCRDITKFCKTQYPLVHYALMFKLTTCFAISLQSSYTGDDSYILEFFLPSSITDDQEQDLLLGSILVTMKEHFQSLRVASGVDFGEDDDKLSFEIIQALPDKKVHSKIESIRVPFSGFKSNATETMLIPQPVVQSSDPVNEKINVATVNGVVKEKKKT

## O=[N+]([O-])O [nitrate]
[1]
  Kd: 52 ± 20 µM
[2]
  Kd: 86 ± 38 µM
